# Test results: patent US8591908B2, “Immunogen for preparation of therapeutic vaccines or drugs for treatment of hepatitis B and the producing method and use thereof” (Institute of Immunology, PLA, priority 2002, dated 2013)
# Values joined by “and” are separate entries in the source; they are usually repeats but may differ in a detail not shown here. Equal entries are not always repeated. Ends that are not written are not given here. * marks the point of attachment. Palmitoyl = CCCCCCCCCCCCCCCC(=O)*
# Columns and labels:
# [1] = tested on: peripheral blood mononuclear lymphocytes of HLA-A2+ healthy person; experiment: FIG. 2: induction of lymphocyte proliferation, 3H-TdR; type: cell-based, human
# Description: FIG. 2 indicated the effect of inducing the proliferation of lymphocytes.
# [2] = tested on: HBV-DNA transgenic mice; experiment: HBV transgenic mice: IFN-γ secreting cells, ELI-SPOT; type: in vivo; details: 30th day after end of immunization
# Method: The levels of cytokines such as IFN-γ, IL-4, etc. in supernatant were measured by the ELISA method, and the activity of the test drug (CH3(CH2)14COKSSQYIKANSKFIGITEAAASIVSPFIPLLGGGDPRVRGLYFPA) (SEQ ID NO:5) for inducing the differentiation of T cells into Th1/Th2 type was analyzed. […] The expression frequency of IFN-γ secreting cells in peripheral blood lymphocytes was measured by the ELI-SPOT method in said supernatant. […] On the 10th, 20th and 30th day after the end of the three immunizations, bloods were removed, serum isolated, and the contents of HBsAg and HBV-DNA in the serum were separately measured by the ELISA method and quantitative PCR method.
# The expression frequency of IFN-γ secreting cells in peripheral blood lymphocytes was measured by the ELI-SPOT method.
# [3] = tested on: enzyme-labeled antibody; experiment: Potency/specific activity of stock solution or semifinished product, enzyme-linked plate; type: binding
# Description: Chromatography column AP5 20/275 POROS 50 R1 was used in the batch production. After peptide-resin was cleaved and preliminarily purified, the collected εPA44 sample was divided into 7 parts for high purification, and the effects and reproducibility for batch purification of εPA44 stock solution were furthered studied. […] The collected elution peak fractions of εPA44 were pooled and mixed homogenously, aliquots were removed for analysis. If the sample met the set standards, it was used as the stock solution and was stored at −20° C. until use. The output, yield and specific activity of the product were calculated based on the measured data.
# The semifinished product to be tested was diluted to a concentration within the measurable range of the potency determination. An enzyme-linked plate( ? ) was coated, blocked, bound by enzyme-labeled antibody, and developed. The absorbance at 450 nm (A450 nm) was detected by an enzyme-labeling device, and compared to the reference of the product. The potency of εPA44 in the extract of the sample was determined, and the specific activity of the semifinished product ( ? ) was calculated.
# The reference of the product was 10-fold diluted with 50% ethanol, and then was two-fold serially diluted. 100 μl dilutions were separately added to the wells on the 96-well enzyme-linket immunosorbent assay plate, each well was repeated in triplicate. Coating was carried out in refrigerator at 4° C. for 20-24 hours. The stock solution of εPA44 was diluted and coated similarly to the reference. 100 μl of 50% ethanol was added to negative control wells. After the coating was completed, 200 μl 1% calf serum was added to each well, and blocked in refrigerator at 4° C. for 2 hours. The enzyme-linket immunosorbent assay plate was dried in air, 80 μl enzyme-labeled antibody was added to each well and incubated at 37° C. for 40 minutes. The plate was washed with wash solution for 4 times and dried in air, then 50 μl of substrate solution A and 50 μl of substrate solution B were added to each well and developed at 37° C. for 15 minutes under protection from light. Then 50 μl of stop solution was added to each well. A450 nm values were detected on 550 type enzyme-linket immunosorbent assay detector. The median dilution times of the reference and the samples were calculated by program or linear regression method based on the median effect value of the reference of εPA44 (median maximum absorbance), and the potency of the test sample and the specific activity of the product were calculated according to the following formulas.
# [4] = tested on: Balb/c mice; experiment: Th1 activation, serum Th1/Th2 cytokines by ELISA; type: in vivo; details: serum 3 weeks after immunization
# Method: Balb/c mice (both male and female) of 2-3 Months old were divided into 8 groups, and were immunized with εPA44 at both postpede palmas once a week for three times at different doses: 0.001 nmol, 0.01 nmol, 0.1 nmol, 0.5 nmol, 1 nmol, 10 nmol, 20 nmol, and 40 nmol respectively. 3 weeks after immunization, the mice were bled by removing their eyeballs and serums were collected. Th1/Th2 cytokines were tested by ELISA.
substance,measurement,setting,value
"K(Palmitoyl)SSQYIKANSKFIGITEAAAFLPSDFFPSVGGGDPRVRGLYFPA-OH [SEQ ID NO:1, CH3(CH2)14COKSSQYIKANSKFIGITEAAAFLPSDFFPSVGGGDPRVRGLYFPA]",minimal effective dose,[1]; lymphocyte proliferation,0.1 ng
same,range with dose-effect dependence,[1]; lymphocyte proliferation,0.1 to 10 ng
same,induction of the proliferation of lymphocytes,"[1]; with IL-2, γ-count after 3H-TdR",significantly induce the proliferation of lymphocytes
same,expression frequency of IFN-γ secreting cells in peripheral blood lymphocytes,[2]; 10-1000 U/mouse,increased with the increase of the immunization dose
same,highest expression frequency of IFN-γ secreting cells,[2]; IFN-α2b at 15000 U/mouse,3660 IFN-γ secreting cells/10^6 PBMC
same,Specific activity,[3]; semifinished product,13985.31 U/mg
same,potency of each vial,[3]; semifinished product,4085.53 U
same,Specific activity,"[3]; stock solution after reversed phase chromatography, batches 1-3 and x ± Sx, listed as εPA44",10265.08 U/mg and 11689.76 ± 1503.57 U/mg and 13261.42 U/mg and 11542.77 U/mg
same,dose inducing the generation of IFN-γ and IL-2,[4],0.01 nmol
